Source: article PMC8924238, “Mapping the sequence specificity of heterotypic amyloid interactions enables the identification of aggregation modifiers” (Nature Communications, 2022)

Test system: HEK293 Tau^RD-P301S-CFP/YFP expressing biosensor cells
Experiment: FRET cellular transfection assay with protein constructs and tau seeds
Format: cell-based
Conditions: for rise of induced tau aggregation in transfection-positive cells: compared to non-expressing and non-transfected cells, high seeding concentrations; for susceptibility to tau seeding at low seed concentrations: concentration-dependent quantification; for number of inclusions formed per cell: higher concentrations of tau seeds, compared to the controls
Protocol: HEK293 Tau^RD-P301S-CFP/YFP expressing biosensor cells[109] were purchased from ATCC and cultured in DMEM medium, supplemented with 10% FBS at 37 °C, and a 5% CO2 atmosphere. Gene constructs (Supplementary Methods) were generated and onboarded to a pTwist CMV expression vector by coupling double-tagged (N-terminal HA and C-terminal FLAG recognition sites) genes of interest to an mKO2 fluorescence reporter, separated by an IRES site to enable independent co-expression (Twist Biosciences). Due to restrictions imposed by the construct synthesis, for proteins longer than 500 residues we designed shorter domain-constructs containing the homologous sequences (Supplementary Table 2). Biosensor cells were plated in poly-L-lysine coated 96-well plates (PerkinElmer) at a density of 20000 cells/well. DNA transfection (100 ng) and tau seeds transfection was performed 6 h and 48 h later, respectively, using Lipofectamine 3000 according to the manufacturer guidelines. For seed transfections specifically, a volume of 4.8 μL of the seed sample, mixed with 0.2 μL of Reagent 3000, was added to a mixture of 0.3 μL of Lipofectamine 3000 with 4.7 μL of Opti-MEM medium. Cells were fixed with 4% formaldehyde 24 h after seeding. Fixed cells were stained with DAPI (Thermofisher, D1306) following the manufacturer protocol. For immunofluorescence staining, primary antibody staining at 1:1000 dilution was performed in 1% BSA with an HA-tag (C29F4) Rabbit mAb (Cell Signalling, #3724), followed by secondary staining with an Alexa Fluor 647 goat anti-rabbit antibody (ThermoFisher, A-21245) at 1:1000 dilution in 1% BSA for 1 h. Three individual plate preparations were performed for each construct gradient as independent experiments (n = 3). High-content screening was performed at the VIB Screening Core/C-BIOS, using an Opera Phenix HCS (PerkinElmer) equipped with proper filter channels to track tau aggregation through FRET (Ex:405, Em:550), construct colocalization through HA staining (Ex:647, Em:667) and DAPI staining (Ex:405 Em:430). Image storage and segmentation analysis was performed using the Columbus Plus digital platform (PerkinElmer). Quantification of colocalization was performed using Coloc2 in ImageJ.

| Molecule | rise of induced tau aggregation in transfection-positive cells [%] | susceptibility to tau seeding at low seed concentrations | number of inclusions formed per cell |
| --- | --- | --- | --- |
| DOCK3: dedicator of cytokinesis, transiently expressed construct | 30 |  |  |
| IDE: insulin degrading enzyme, transiently expressed construct with homology to PHF6 | 30 | vulnerable to tau seeding even at picomolar concentrations | doubling or higher effect |
| TRA2B: Transformer-2 homolog beta, transiently expressed construct (protein, UniProt P62995 2-288, looked up) Transformer-2 protein homolog …: SDSGEQNYGERESRSASRSGSAHGSGKSARHTPARSRSKEDSRRSRSKSRSRSESRSRSRRSSRRHYTRSRSRSRSHRRSRSRSYSRDYRRRHSHSHSPMSTRRRHVGNRANPDPNCCLGVFGLSLYTTERDLREVFSKYGPIADVSIVYDQQSRRSRGFAFVYFENVDDAKEAKERANGMELDGRRIRVDFSITKRPHTPTPGIYMGRPTYGSSRRRDYYDRGYDRGYDDRDYYSRSYRGGGGGGGGWRAAQDRDQIYRRRSPSPYYSRGGYRSRSRSRSYSPRRY | 30 | vulnerable to tau seeding even at picomolar concentrations | doubling or higher effect |
| SNTG1: Synaptotagmin-1 (SNTG1) as worded, transiently expressed construct (protein, UniProt Q9NSN8 1-517, looked up) Gamma-1-syntrophin: MDFRTACEETKTGICLLQDGNQEPFKVRLHLAKDILMIQEQDVICVSGEPFYSGERTVTIRRQTVGGFGLSIKGGAEHNIPVVVSKISKEQRAELSGLLFIGDAILQINGINVRKCRHEEVVQVLRNAGEEVTLTVSFLKRAPAFLKLPLNEDCACAPSDQSSGTSSPLCDSGLHLNYHPNNTDTLSCSSWPTSPGLRWEKRWCDLRLIPLLHSRFSQYVPGTDLSRQNAFQVIAVDGVCTGIIQCLSAEDCVDWLQAIATNISNLTKHNIKKINRNFPVNQQIVYMGWCEAREQDPLQDRVYSPTFLALRGSCLYKFLAPPVTTWDWTRAEKTFSVYEIMCKILKDSDLLDRRKQCFTVQSESGEDLYFSVELESDLAQWERAFQTATFLEVERIQCKTYACVLESHLMGLTIDFSTGFICFDAATKAVLWRYKFSQLKGSSDDGKSKIKFLFQNPDTKQIEAKELEFSNLFAVLHCIHSFFAAKVACLDPLFLGNQATASTAASSATTSKAKYTT |  |  | doubling or higher effect |
